The target in one assay is T1, USP7 (Homo sapiens, UniProt Q93009).
T1 construct: Full-length wild-type human USP7 and its catalytic mutant (cysteine 223 replaced by alanine, C223A) were produced as N-terminally His-tagged fusions; His (N); made in house; host or cells: Spodoptera frugiperda Sf9 (or High Five) insect cells, baculovirus pFastBac-HT-B
The assay is described as follows: USP7 assay with GST-Ub52-Flag substrate (HTRF). Type of assay: biochemical. Particulars: USP7 200 pM. The method, then: (§1) For compounds 26 to 38, the in-vitro assays on USP7 and USP8 were carried out according to the following procedure
(§2) The present examples 26 to 38 makes it possible to validate the use of GST-Ub52-Flag in an assay based on the time-resolved measurement of fluorescence emitted by […] in homogenous medium.
(§3) The assay is carried out on multiwell assay plates. The plates are analyzed on a PHERAstar fluorimeter (BMG) after an overnight incubation at 4° C. (excitation 337 nm, emission 620 and 665 nm).
(§4) The reagents used were as follows: • Solution of USP7 at 200 pM and USP8 at 400 pM in 50 mM Tris HCl pH 7.6, Bovine Serum Albumin 0.05%, DTT 5 mM. • Anti-Flag-K (CIS bio international), solution at 0.2 μM in 0.8 M KF, 0.1 Bovine Serum Albumin, Tris HCl 25 mM pH 7.6. • Anti-GST antibody-XL665 conjugate (CIS bio international), solution at 2.6 μM in 0.8 M KF, 0.1% Bovine Serum Albumin, Tris HCl 25 mM pH 7.6. • GST-Ub52-flag solution at 14.75 μM & MBP_Ub52 at 37.7 μM are prepared by dilutions from the stock solution described above in 50 mM Tris HCl pH 7.6, EDTA 0.5 mM, Bovine Serum Albumin 0.05%, DTT 5 mM.
(§5) The enzyme reaction is carried out by mixing GST-Ub52-flag solution with 5 μl of USP7 solution (200 pM final) or 5 μl of USP8 (400 pM final). This mixture is incubated for one hour at room temperature on a multiwell assay plate. A 10 μl mixture of 5 μl of anti-Flag-K solution (0.2 μM) plus 5 μl of anti-GST-XL665 antibody (2.6 μM) is added to each well of the multiwell assay plate. The plate is read after an overnight incubation at 4° C. on a PHERAstar fluorimeter (BMG).
(§6) The decrease in the signal correlates with the increase in enzyme activity i.e. the cleavage of GST-Ub52-Flag substrate. The format used is therefore entirely suitable for a method of assaying an enzyme of the deubiquitinating type such as ubiquitin specific protease, but also for determining a modulator of this enzyme activity.
(§7) The same procedures as mentioned above for assaying the activity of enzymes of the deubiquitinating type are carried out but the various reaction mixtures are incubated with identical enzyme concentration, in the presence or absence of a test compounds 26 to 38. Data (mean values+/− standard deviation) were analyzed as % of control (no compound) and plotted as percentage versus the Log of the compound concentration using GraphPad (Prism).
On the technique in general: In TR-FRET formats the signal depends on donor and acceptor labels being close together.

The subject of assay [1] is HCT116 colon cancer cells. The assay is described as follows: HCT116 cell viability and proliferation assay (MTS). Format: cell-based. As to conditions: Homo sapiens, HCT-116, 72 h, HCT116, 72 hours, read-out: Cell viability (MTS): HCT116 GI50 Day3. The method, then:
HCT116 colon cancer cells were obtained from ATCC (American Type Culture Collection), and maintained in Mc Coy's 5A medium containing 10% FBS, 3 mM glutamine and 1% penicillin/streptomycin. Cells were incubated at 37° C. in a humidified atmosphere containing 5% CO2.
Cell viability was assayed using the MTS technique in 96-well culture plates (CellTiter 96® Aqueous Non-Radioactive Cell Proliferation Assay, Promega) according to the manufacturer's instructions. MTS (3-(4,5-dimethyl-thiazol-2-yl)-5-(3-carboxy-methoxyphenyl)-2-(4-sulfophenyl)-2H-tetra-zolium) is a MTT-derived tetrazolium that is reduced in metabolically active cells into a soluble, cell-permeant formazan. The amount of formazan, detected by its absorbance at 492 nm is proportional to the number of living, metabolically active cells.
10^3 HCT116 cells were seeded per well. 24 hours later, the medium was changed and the cells treated in triplicate with the concentrations of each compound from 100 μM to 50 nM. The compounds were diluted in 100% DMSO, whose final concentration on cells was kept at 0.5%.
Cells were incubated with the compounds for 72 hours, and their viability then assayed by the addition of MTS for 2 hours. Absorbance at 492 nm was measured directly from the 96-well culture plates. Gl50 (Growth Inhibition 50) concentrations for each compound were calculated using a sigmoidal variable slope fit (Prism 4.0, Graphpad Softwares). Values represent mean of three independent experiments.

The next assay concerns the target T2, USP8 (Homo sapiens, UniProt P40818).
T2 construct: His (from pFastBac-HT vector) (N); made in house; host or cells: Sf9 or High Five insect cells, baculovirus
T2 sequence (P40818 1-1118): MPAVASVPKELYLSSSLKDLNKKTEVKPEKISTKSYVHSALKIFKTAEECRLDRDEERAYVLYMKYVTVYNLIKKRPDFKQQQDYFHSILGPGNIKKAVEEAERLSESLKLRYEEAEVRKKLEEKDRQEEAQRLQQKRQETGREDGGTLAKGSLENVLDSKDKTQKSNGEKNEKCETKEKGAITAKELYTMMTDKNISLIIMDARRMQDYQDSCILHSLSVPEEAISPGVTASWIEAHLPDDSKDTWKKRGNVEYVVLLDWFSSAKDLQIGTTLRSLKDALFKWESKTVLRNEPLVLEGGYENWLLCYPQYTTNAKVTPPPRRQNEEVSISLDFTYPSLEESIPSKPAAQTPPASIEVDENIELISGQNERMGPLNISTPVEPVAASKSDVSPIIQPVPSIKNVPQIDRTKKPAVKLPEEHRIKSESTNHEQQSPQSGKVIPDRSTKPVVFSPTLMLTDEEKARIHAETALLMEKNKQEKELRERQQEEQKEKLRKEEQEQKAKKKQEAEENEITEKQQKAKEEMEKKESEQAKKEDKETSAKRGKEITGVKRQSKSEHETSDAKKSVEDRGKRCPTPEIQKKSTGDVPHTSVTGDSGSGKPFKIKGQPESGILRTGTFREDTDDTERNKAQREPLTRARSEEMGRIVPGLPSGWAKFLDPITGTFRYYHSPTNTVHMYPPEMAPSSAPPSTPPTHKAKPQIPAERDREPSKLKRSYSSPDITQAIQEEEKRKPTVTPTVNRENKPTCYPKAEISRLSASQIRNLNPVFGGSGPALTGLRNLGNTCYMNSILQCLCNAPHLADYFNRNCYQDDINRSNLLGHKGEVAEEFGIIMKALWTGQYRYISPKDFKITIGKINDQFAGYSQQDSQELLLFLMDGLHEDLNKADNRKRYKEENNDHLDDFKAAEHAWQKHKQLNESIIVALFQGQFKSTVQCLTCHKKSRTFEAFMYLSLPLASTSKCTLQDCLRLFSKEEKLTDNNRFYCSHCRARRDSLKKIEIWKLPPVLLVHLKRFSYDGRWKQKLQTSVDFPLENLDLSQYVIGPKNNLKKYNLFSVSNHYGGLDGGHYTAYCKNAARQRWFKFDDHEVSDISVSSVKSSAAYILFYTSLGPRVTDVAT
The assay is described as follows: USP8 assay with GST-Ub52-Flag substrate (HTRF). Type of assay: biochemical. Particulars: USP8 400 pM. As to the method: as §1, §2, §3, §4, §5, §6, §7

Data on 8 compounds can be found in US9328093B2, “Selective inhibitors of ubiquitin specific protease 7, the pharmaceutical compositions thereof and their therapeutic applications” (HYBRIGENICS SA, priority 2010, dated 2016).

Structures are written as SMILES.

The term IC50 denotes the concentration that inhibits the measured activity by half. The term GI50 denotes the concentration giving 50% growth inhibition. For `CCN(CC)CCCC(C)NC(=O)c1ccc2c(Cl)c3c(nc2c1)CCCC3` (stereo not drawn) [Example 35, 9-chloro-N-(5-(diethylamino)pentan-2-yl)-5,6,7,8-tetrahydroacridine-3-carboxamide], the figures for the 50% inhibitory concentration (IC50) against USP7 and on USP8 were 36.9 µM and greater than 200 µM, respectively. Besides, the GI50 in assay [1] was found to be 8.2 µM.
Take `O=C(NCCN1CCCCC1)c1ccc2c(Cl)c3c(nc2c1)CCCC3` [Example 28, 9-chloro-N-(2-(piperidin-1-yl)ethyl)-5,6,7,8-tetrahydroacridine-3-carboxamide]: the IC50 is 11.9 µM against USP7 and greater than 200 µM at USP8. Besides, the concentration for 50% growth inhibition (GI50) in assay [1] is 8.8 µM.
For the compound `CN1CCC(CN2CCN(C(=O)c3ccc4c(Cl)c5c(nc4c3)CCCC5)CC2)CC1` [Example 29, (9-chloro-5,6,7,8-tetrahydroacridine-3-yl)(4-((1-methylpiperidin-4-yl)methyl)piperazin-1-yl)methanone], the half-inhibitory concentration (IC50) was 8.5 µM on USP7 and greater than 200 µM against USP8. In addition, the 50% growth inhibitory concentration (GI50) in assay [1] was 7.3 µM.
For the compound `O=C(c1ccc2c(Cl)c3c(nc2c1)CCCC3)N1CCCCC1` [Example 31, (9-chloro-5,6,7,8-tetrahydroacridine-3-yl)(piperidin-1-yl)methanone], the IC50 against USP7 was 24.5 µM; against USP8, greater than 200 µM. The GI50 in assay [1] stood at 11.4 µM.
For `O=C(NCCCN1CCc2ccccc2C1)c1ccc2c(Cl)c3c(nc2c1)CCCC3` [Example 39, 9-chloro-N-(3-(3,4-dihydroisoquinolin-2(1H)-yl)propyl)-5,6,7,8-tetrahydroacridine-3-carboxamide], in that order: 38.5 µM, greater than 200 µM and 7.6 µM.
In the case of `O=C(NCCN1CCCCCC1)c1ccc2c(Cl)c3c(nc2c1)CCCC3` [Example 27, N-(2-(azepan-1-yl)ethyl)-9-chloro-5,6,7,8-tetrahydroacridine-3-carboxamide], the IC50 against USP7 is 15.4 µM; on USP8, greater than 200 µM. The GI50 in assay [1] came out at 10 µM.
In the same order, the values of `CCN1CCC[C@H]1CNC(=O)c1ccc2c(Cl)c3c(nc2c1)CCCC3` [Example 37, (S)-9-chloro-N-((1-ethylpyrrolidin-2-yl)methyl)-5,6,7,8-tetrahydroacridine-3-carboxamide] are 25.9 µM, greater than 200 µM and 8.7 µM.
For `O=C(NCC1CCN(CCCc2ccccc2)CC1)c1ccc2c(Cl)c3c(nc2c1)CCCC3` [Example 33, 9-chloro-N-((1-(3-phenylpropyl)piperidin-4-yl)methyl)-5,6,7,8-tetrahydroacridine-3-carboxamide], the figures for the IC50 against USP7 and on USP8 were 16.4 µM and greater than 200 µM, respectively. Moreover, the GI50 in assay [1] is 2 µM.
